DBAASP
In brackets after ≈: the same amount, converted by molar mass. Several values for one entry are separate records, joined by “and”; a condition that tells them apart may be missing. Equal values may be shown once. Blank lines part the entries; values can stand above or below the molecule they belong to.

What was measured:
Test in all cases: ≥ marks a high value that may be exact or a test limit, other limits are often not marked, values filed in µg/mL are converted to µM
[1] = system: Candida albicans ATCC 10231
Candida krusei CBS 573 = system: Candida krusei CBS 573
[2] = system: Candida parapsilosis CBS 604
[3] = system: Saccharomyces cerevisiae SZMC 0644
[4] = system: Pseudomonas aeruginosa 1570
[5] = system: Pseudomonas aeruginosa 5167
[6] = system: Bacillus cereus ATCC 14579
[7] = system: Bacillus subtilis ATCC 23857
[8] = system: Candida albicans ATCC 90028
[9] = system: Cryptococcus neoformans ATCC 28957
[10] = system: Escherichia coli ATCC 25922
[11] = system: Fusarium oxysporum f.sp. vasinfectum
Fusarium oxysporum = system: Fusarium oxysporum
Fusarium solani = system: Fusarium solani
[12] = system: Pectobacterium carotovorum
[13] = system: Pseudomonas aeruginosa ATCC 27853
[14] = system: Pseudomonas syringae pv. tabaci
Ramulariopsis gossypii = system: Ramulariopsis gossypii
[15] = system: Staphylococcus aureus ATCC 25923
Trichoderma asperellum = system: Trichoderma asperellum
[16] = system: Xanthomonas campestris pv. citri
[17] = system: Staphylococcus aureus LAC
[18] = system: Aspergillus niger CECT 2694
[19] = system: Candida albicans ATCC 64550
[20] = system: Erwinia amylovora PMV 6076
[21] = system: Escherichia coli DH5alpha
[22] = system: Fusarium oxysporum f. sp. lycopersici ATCC 201829
[23] = system: Penicillium digitatum PHI-26
[24] = system: Penicillium expansum EPS 26
[25] = system: Pseudomonas syringae EPS 94
[26] = system: Rhizopus stolonifer CECT 2344
[27] = system: Saccharomyces cerevisiae FY1679
[28] = system: Xanthomonas vesicatoria 2133-2
[29] = system: Bacillus subtilis KCTC 1998
[30] = system: Escherichia coli CCARM 1238
[31] = system: Listeria monocytogenes ATCC 3710
[32] = system: Proteus vulgaris KCTC 2433
[33] = system: Pseudomonas aeruginosa 3543
[34] = system: Pseudomonas aeruginosa 4007
[35] = system: Pseudomonas aeruginosa ATCC 15692
[36] = system: Staphylococcus aureus 3518
[37] = system: Staphylococcus aureus ATCC 29213
[38] = system: Staphylococcus epidermidis ATCC 12228

- MIC [1]: 20.3 µM (≈ 49.9 µg/mL)
- MIC (Candida krusei CBS 573): 20.3 µM (≈ 49.9 µg/mL)
- MIC [2]: 20.3 µM (≈ 49.9 µg/mL)
- MIC [3]: 20.3 µM (≈ 49.9 µg/mL)
Compound: CC[C@H](C)[C@H](N)C(=O)N[C@@H](C)C(=O)N[C@H](C(=O)N[C@@H](CO)C(=O)N1CCC[C@H]1C(=O)N[C@@H](Cc1ccc(O)cc1)C(=O)N[C@@H](Cc1ccc(O)cc1)C(=O)N[C@@H](C)C(=O)N[C@H]1CSSC[C@@H](C(=O)O)NC(=O)CNC(=O)[C@H](CO)NC(=O)CNC(=O)[C@H](CCCCN)NC(=O)[C@H](CCCCN)NC(=O)[C@H](Cc2cnc[nH]2)NC(=O)[C@H](CCCCN)NC(=O)[C@@H]2CSSC[C@H](NC(=O)[C@H](CC(N)=O)NC1=O)C(=O)N1CCC[C@H]1C(=O)N[C@@H](CC(N)=O)C(=O)N[C@@H](CC(N)=O)C(=O)N2)[C@@H](C)O [IATSPYYACNCPNNCKHKKGSGC]

- MIC [4]: 10.7 µM (≈ 11.3 µg/mL)
- MIC [5]: ≥ 42.8 µM
Compound: CC(C)C[C@H](NC(=O)[C@H](CC(C)C)NC(=O)[C@H](CCCCN)NC(=O)[C@H](CCCCN)NC(=O)[C@H](CC(C)C)NC(=O)[C@H](CC(C)C)NC(=O)[C@H](C)NC(=O)[C@H](CC(C)C)NC(=O)[C@@H](N)Cc1ccccc1)C(N)=O [FLALLKKLL]

- MIC [6]: ≥ 64 µM
- MIC [7]: 16 µM (≈ 36.4 µg/mL)
- MIC [8]: 4 µM (≈ 9.1 µg/mL)
- MIC [9]: 10.7 µM (≈ 24.3 µg/mL)
- MIC [10]: 32 µM (≈ 72.8 µg/mL)
- MIC [11]: 16 µM (≈ 36.4 µg/mL)
- MIC (Fusarium oxysporum): 16 µM (≈ 36.4 µg/mL)
- MIC (Fusarium solani): ≥ 32 µM
- MIC [12]: ≥ 128 µM
- MIC [13]: 26.7 µM (≈ 60.7 µg/mL)
- MIC [14]: 16 µM (≈ 36.4 µg/mL)
- MIC (Ramulariopsis gossypii): 4 µM (≈ 9.1 µg/mL)
- MIC [15]: 13.3 µM (≈ 30.3 µg/mL)
- MIC (Trichoderma asperellum): 6.67 µM (≈ 15.2 µg/mL)
- MIC [16]: ≥ 64 µM
Compound: CSCC[C@H](NC(=O)[C@H](Cc1ccccc1)NC(=O)CNC(=O)[C@H](Cc1cnc[nH]1)NC(=O)[C@H](CC(C)C)NC(=O)[C@H](CO)NC(=O)CN)C(=O)N[C@@H](Cc1ccc(O)cc1)C(=O)N[C@@H](CCCCN)C(=O)N[C@@H](Cc1ccc(O)cc1)C(=O)N[C@@H](CC(C)C)C(=O)N[C@@H](CCCCN)C(=O)N[C@@H](CC(N)=O)C(=O)N[C@@H](CCSC)C(=O)N[C@H](C(=O)N[C@@H](CC(C)C)C(=O)N[C@@H](CC(N)=O)C(=O)N[C@@H](CC(C)C)C(=O)N[C@@H](Cc1ccccc1)C(N)=O)C(C)C [GSLHGFMYKYLKNMVLNLF]

- MIC [10]: > 117 µM
- MIC [17]: ≥ 117 µM
Compound: CC(C)C[C@H](NC(=O)[C@H](CC(C)C)NC(=O)[C@H](CC(C)C)NC(=O)[C@@H](N)CC(C)C)C(=O)N[C@@H](CCCN=C(N)N)C(=O)N[C@@H](CCCN=C(N)N)C(=O)N[C@@H](CCCN=C(N)N)C(=O)N[C@@H](CCCN=C(N)N)C(=O)O [LLLLRRRR]

- MIC [18]: 22.4 µM (≈ 31.4 µg/mL)
- MIC [19]: 25 µM (≈ 35.1 µg/mL)
- MIC [20]: 3.16 µM (≈ 4.44 µg/mL)
- MIC [21]: 4 µM (≈ 5.62 µg/mL)
- MIC [22]: 0.849 µM (≈ 1.19 µg/mL)
- MIC [23]: 4 µM (≈ 5.62 µg/mL)
- MIC [24]: ≥ 35.4 µM
- MIC [25]: 3.16 µM (≈ 4.44 µg/mL)
- MIC [26]: ≥ 35.4 µM
- MIC [27]: 16 µM (≈ 22.5 µg/mL)
- MIC [28]: 3.16 µM (≈ 4.44 µg/mL)
Compound: CC[C@H](C)[C@H](NC(=O)[C@H](CCCCN)NC(=O)[C@H](CCCCN)NC(=O)[C@H](Cc1ccccc1)NC(=O)[C@H](CC(C)C)NC(=O)[C@H](CCCCN)NC(=O)[C@@H](N)CCCCN)C(=O)N[C@@H](CC(C)C)C(=O)N[C@@H](CCCCN)C(=O)N[C@@H](Cc1ccccc1)C(=O)N[C@@H](CC(C)C)C(N)=O [KKLFKKILKFL]

- MIC [29]: 4 µM (≈ 10.1 µg/mL)
- MIC [10]: 2 µM and 4 µM
- MIC [30]: 2 µM (≈ 5.04 µg/mL)
- MIC [31]: 4 µM (≈ 10.1 µg/mL)
- MIC [32]: 4 µM and 8 µM
- MIC [33]: 4 µM (≈ 10.1 µg/mL)
- MIC [34]: 2 µM (≈ 5.04 µg/mL)
- MIC [35]: ≥ 32 µM
- MIC [36]: 8 µM (≈ 20.2 µg/mL)
- MIC [37]: 8 µM (≈ 20.2 µg/mL)
- MIC [38]: 4 µM and 8 µM
Compound: CC[C@H](C)[C@H](NC(=O)[C@H](Cc1ccccc1)NC(=O)[C@H](CCCN=C(N)N)NC(=O)[C@H](CC(C)C)NC(=O)[C@@H](N)Cc1ccccc1)C(=O)NCC(=O)N[C@@H](CO)C(=O)N[C@H](C(=O)N[C@@H](CCCCN)C(=O)N[C@@H](Cc1cnc[nH]1)C(=O)NCC(=O)N[C@@H](CCCCN)C(=O)NCC(=O)N[C@@H](Cc1cnc[nH]1)C(=O)N[C@@H](CC(C)C)C(=O)N[C@H](C(=O)N[C@@H](Cc1cnc[nH]1)C(=O)N[C@@H](Cc1cnc[nH]1)C(=O)N[C@H](C(=O)NCC(=O)N[C@H](C(=O)N[C@@H](C)C(=O)N[C@@H](CC(C)C)C(N)=O)C(C)C)[C@@H](C)CC)C(C)C)C(C)C [FLRFIGSVKHGKGHLVHHIGVAL]
